Data: patent US20220220152A1, “BIVALENT ANTAGONISTS OF INHIBITORS OF APOPTOSIS PROTEINS” (Hepagene Therapeutics (HK) Limited, priority 2019, published 2022)

Tests used:
[1] = molecular target: T1, XIAP-BIR3 (Homo sapiens, UniProt P98170); assay: XIAP-BIR3 fluorescence polarization binding assay; conditions: FP, probe AbuRPFK-5FAM (SM5F) 5 nM, XIAP-BIR3 40 nM, 60 min at 25° C.
T1 construct: XIAP-BIR3; purchased Reaction Biology APT-11-374
In short: (§1)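 Fluorescence polarization competition using 5-carboxyfluorescein-labelled peptide probe AbuRPFK-5FAM; protein and compound preincubated 15 min, probe added, then 60 min at 25° C.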

[2] = molecular target: T2, cIAP1-BIR3 (Homo sapiens, UniProt Q13490); assay: cIAP1-BIR3 fluorescence polarization binding assay; conditions: FP, probe AbuRPFK-5FAM (SM5F) 5 nM, cIAP1-BIR3 15 nM, 60 min at 25° C.
T2 construct: cIAP1-BIR3; purchased Reaction Biology APT-11-370
In short: as §1

[3] = molecular target: T3, cIAP2-BIR3 (Homo sapiens, UniProt Q13489); assay: cIAP2-BIR3 fluorescence polarization binding assay; conditions: FP, probe AbuRPFK-5FAM (SM5F) 5 nM, cIAP2-BIR3 80 nM, 60 min at 25° C.
T3 construct: cIAP2-BIR3; purchased Reaction Biology APT-11-372
In short: as §1

T3 sequence (Q13489 238-349 limits assumed): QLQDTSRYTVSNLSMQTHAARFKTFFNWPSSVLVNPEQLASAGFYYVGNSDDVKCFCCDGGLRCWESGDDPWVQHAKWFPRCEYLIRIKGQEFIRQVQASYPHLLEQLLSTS
T2 sequence (Q13490 253-363 limits assumed): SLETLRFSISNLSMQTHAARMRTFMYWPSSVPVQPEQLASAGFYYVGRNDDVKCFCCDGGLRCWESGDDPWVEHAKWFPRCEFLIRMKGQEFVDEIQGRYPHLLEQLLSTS
T1 sequence (P98170 241-356 limits assumed): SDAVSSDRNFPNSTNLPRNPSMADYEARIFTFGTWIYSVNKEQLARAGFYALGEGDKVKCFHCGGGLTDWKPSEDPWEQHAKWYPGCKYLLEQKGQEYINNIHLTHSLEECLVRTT

SMILES | IC50 [1] [nM] | IC50 [2] [nM] | IC50 [3] [nM]
CN[C@@H](C)C(=O)N[C@H](C(=O)N1C[C@@H](O)C[C@H]1C(=O)N[C@@H]1CCCc2c(-c3cccc4c3CCC[C@H]4NC(=O)[C@@H]3C[C@H](O)CN3C(=O)[C@@H](NC(=O)[C@H](C)NC)C3CCCCC3)cccc21)C1CCCCC1 [Compound V-L, (2S,4S)-1-[(2S)-2-cyclohexyl-2-[(2S)-2-(methylamino)propanamido]acetyl]-N-[(5R,5′R)-5′-[(2S,4S)-1-[(2S)-2-cyclohexyl-2-[(2S)-2-(methylamino)propanamido]acetyl]-4-hydroxypyrrolidine-2-amido]-5H,5′H,6H,6′H,7H,7′H,8H,8′H-[1,1′-binaphthalen]-5-yl]-4-hydroxypyrrolidine-2-carboxamide] | 10 to 100 | 1 to 10 | 10 to 100
CN[C@@H](C)C(=O)N[C@H](C(=O)N1CCC[C@@H]1C(=O)N[C@@H]1CCCc2ccc(-c3ccc(-c4ccc5c(c4)[C@H](NC(=O)[C@@H]4CCCN4C(=O)[C@@H](NC(=O)[C@H](C)NC)C4CCCCC4)CCC5)cc3)cc21)C1CCCCC1 [Compound III-M, (2S)-1-[(2S)-2-cyclohexyl-2-[(2S)-2-(methylamino)propanamido]acetyl]-N-[(1R)-7-[4-[(8R)-8-[(2R)-1-[(2S)-2-cyclohexyl-2-[(2S)-2-(methylamino)propanamido]acetyl]pyrrolidine-2-amido]-5,6,7,8-tetrahydronaphthalen-2-yl]phenyl]-1,2,3,4-tetrahydronaphthalen-1-yl]pyrrolidine-2-carboxamide] | > 1000 | 10 to 100 | 100 to 1000
CN[C@@H](C)C(=O)N[C@H](C(=O)N1CCC[C@H]1C(=O)N[C@@H]1CCOc2c(-c3cccc4c3OCC[C@H]4NC(=O)[C@@H]3CCCN3C(=O)[C@@H](NC(=O)[C@H](C)NC)C3CCCC3)cccc21)C1CCCC1 [Compound V-F, (2S)-1-[(2S)-2-cyclopentyl-2-[(2S)-2-(methylamino)propanamido]acetyl]-N-[(4R)-8-[(4R)-4-[(2S)-1-[(2S)-2-cyclopentyl-2-[(2S)-2-(methylamino)propanamido]acetyl]pyrrolidine-2-amido]-3,4-dihydro-2H-1-benzopyran-8-yl]-3,4-dihydro-2H-1-benzopyran-4-yl]pyrrolidine-2-carboxamide] | 10 to 100 | 1 to 10 | 10 to 100
CN[C@@H](C)C(=O)N[C@H](C(=O)N1CCC[C@H]1C(=O)N[C@@H]1CCOc2c(-c3cccc4c3OCC[C@H]4NC(=O)[C@@H]3CCCN3C(=O)[C@@H](NC(=O)[C@H](C)NC)C(C)C)cccc21)C(C)C [Compound V-C, (2S)-1-[(2S)-3-methyl-2-[(2S)-2-(methylamino)propanamido]butanoyl]-N-[(4R)-8-[(4R)-4-[(2S)-1-[(2S)-3-methyl-2-[(2S)-2-(methylamino)propanamido]butanoyl]pyrrolidine-2-amido]-3,4-dihydro-2H-1-benzopyran-8-yl]-3,4-dihydro-2H-1-benzopyran-4-yl]pyrrolidine-2-carboxamide] | 10 to 100 | 1 to 10 | 10 to 100
CN[C@@H](C)C(=O)N[C@H](C(=O)N1CCC[C@H]1C(=O)N[C@@H]1CCCc2c(-c3cccc(-c4cccc5c4CCC[C@H]5NC(=O)[C@@H]4CCCN4C(=O)[C@@H](NC(=O)[C@H](C)NC)C(C)C)c3)cccc21)C(C)C [Compound III-E, (2S)-1-[(2S)-3-methyl-2-[(2S)-2-(methylamino)propanamido]butanoyl]-N-[(1R)-5-[3-[(5R)-5-[(2S)-1-[(2S)-3-methyl-2-[(2S)-2-(methylamino)propanamido]butanoyl]pyrrolidine-2-amido]-5,6,7,8-tetrahydronaphthalen-1-yl]phenyl]-1,2,3,4-tetrahydronaphthalen-1-yl]pyrrolidine-2-carboxamide] | 1 to 10 | 1 to 10 | 10 to 100
CC[C@H](NC(=O)[C@H](C)NC)C(=O)N1CCC[C@H]1C(=O)N[C@@H]1CCCc2c(-c3cccc4c3CCC[C@H]4NC(=O)[C@@H]3CCCN3C(=O)[C@H](CC)NC(=O)[C@H](C)NC)cccc21 [V-I, (2S)-1-[(2S)-2-[(2S)-2-(methylamino)propanamido]butanoyl]-N-[1(5R,5′R)-5′-[(2S)-1-[(2S)-2-[(2S)-2-(methylamino)propanamido]butanoyl]pyrrolidine-2-amido]-5H,5′H,6H,6′H,7H,7′H,8H,8′H-[1,1′-binaphthalen]-5-yl]pyrrolidine-2-carboxamide; Bis(Formic Acid)] | 10 to 100 | 1 to 10 | 1 to 10
CN[C@@H](C)C(=O)N[C@H](C(=O)N1CCC[C@H]1C(=O)N[C@@H]1CCCc2c(-c3cccc(-c4cccc5c4CCC[C@H]5NC(=O)[C@@H]4CCCN4C(=O)[C@@H](NC(=O)[C@H](C)NC)C4CCCCC4)c3)cccc21)C1CCCCC1 [III-A, (2S)-1-[(2S)-2-Cyclohexyl-2-[(2S)-2-(methylamino)propanamido]acetyl]-N-[(1R)-5-(3-[(5R)-5-[(2S)-1-[(2S)-2-cyclohexyl-2-[(2S)-2-(methylamino)propanamido]acetyl]pyrolidine-2-amido]-5,6,7,8-tetrahydronaphthalen-1-yl]phenyl)-1,2,3,4-tetrahydronaphthalen-1-yl]pyrrolidine-2-carboxamide] | 10 to 100 | 1 to 10 | 10 to 100
CN[C@@H](C)C(=O)N[C@H](C(=O)N1C[C@@H](O)C[C@H]1C(=O)N[C@@H]1CCCc2c(OC/C=C/COc3cccc4c3CCC[C@H]4NC(=O)[C@@H]3C[C@H](O)CN3C(=O)[C@@H](NC(=O)[C@H](C)NC)C3CCCCC3)cccc21)C1CCCCC1 [Compound I-E, (2S,4S)-1-[(2S)-2-cyclohexyl-2-[(2S)-2-(methylamino)propanamido]acetyl]-N-[(1R)-5-[[(2E)-4-[[(5R)-5-[(2S,4S)-1-[(2S)-2-cyclohexyl-2-[(2S)-2-(methylamino)propanamido]acetyl]-4-hydroxypyrrolidine-2-amido]-5,6,7,8-tetrahydronaphthalen-1-yl]oxy]but-2-en-1-yl]oxy]-1,2,3,4-tetrahydronaphthalen-1-yl]-4-hydroxypyrrolidine-2-carboxamide] | 10 to 100 | 1 to 10 | 10 to 100
CN[C@@H](C)C(=O)N[C@H](C(=O)N1CCC[C@H]1C(=O)N[C@@H]1CCCc2c(Oc3cccc4c3CCC[C@H]4NC(=O)[C@@H]3CCCN3C(=O)[C@@H](NC(=O)[C@H](C)NC)C(C)C)cccc21)C(C)C [Compound X-B, (S)-1-(Methyl-L-alanyl-L-valyl)-N—((R)-5-(((R)-5-((S)-1-(methyl-L-alanyl-L-valyl)pyrrolidine-2-carboxamido)-5,6,7,8-tetrahydronaphthalen-1-yl)oxy)-1,2,3,4-tetrahydronaphthalen-1-yl)pyrrolidine-2-carboxamide] | 10 to 100 | 1 to 10 | 10 to 100
CN[C@@H](C)C(=O)N[C@H](C(=O)N1CCC[C@H]1C(=O)N[C@@H]1CCCc2c(OCCc3ccc(CCOc4cccc5c4CCC[C@H]5NC(=O)[C@@H]4CCCN4C(=O)[C@@H](NC(=O)[C@H](C)NC)C4CCCCC4)cc3)cccc21)C1CCCCC1 [Compound IV, (2S)-1-[(2S)-2-Cyclohexyl-2-[(2S)-2-(methylamino)propanamido]acetyl]-N-[(1R)-5-[2-[4-(2-[[(5R)-5-[(2S)-1-[(2S)-2-cyclohexyl-2-[(2S)-2-(methylamino)propanamido]acetyl]pyrrolidine-2-amido]-5,6,7,8-tetrahydronaphthalen-1-yl]oxy]ethyl)phenyl]ethoxy]-1,2,3,4-tetrahydronaphthalen-1-yl]pyrrolidine-2-carboxamide] | 100 to 1000 | 10 to 100 | 10 to 100
CC[C@H](NC(=O)[C@H](C)NC)C(=O)N1CCC[C@H]1C(=O)N[C@@H]1CCCc2c(Oc3cccc4c3CCC[C@H]4NC(=O)[C@@H]3CCCN3C(=O)[C@H](CC)NC(=O)[C@H](C)NC)cccc21 [Compound X-A] | 10 to 100 | 1 to 10 | 10 to 100
